System: Virus
Assay: Design of Experiment study of viral inactivation process variables
Type: cell-based
Details: 30 mM caprylate, albumin 5%, pH 4.4, 40° C., 120 min

CCCCCCCC(=O)O [caprylate, octanoic acid]
predicted LRV (equivalent of 100%): 2.16
predicted LRV on the 0 to 100 scale (maximized): 100%

Reference: patent publication US9023797B2 (priority 2012, dated 2015)
